In ChEMBL document CHEMBL1201862, “PubChem BioAssay data set” (2004):
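Cells were grown in 96-well plates and exposed to each compound for 48 hours at five concentrations; endpoints were interpolated linearly between bracketing concentrations, or set to the highest concentration if not reached. GI50 = concentration required for 50% inhibition of growth.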 Calls of active or inactive are those of the source. No stated cut-off is given here; in the data, active = GI50 up to about 1.1 µM and inactive = higher.

Tests used:
Assay in all cases: NCI tumour cell line growth inhibition, 48 h
Malme-3M = system: Malme-3M
LOX IMVI = system: LOX IMVI
SNB-75 = system: SNB-75
ACHN = system: ACHN
KM12 = system: KM12
CAKI-1 = system: CAKI-1
SK-MEL-28 = system: SK-MEL-28
786-0 = system: 786-0
UACC-62 = system: UACC-62
NCI-H460 = system: NCI-H460
UACC-257 = system: UACC-257
RPMI-8226 = system: RPMI-8226
SF-295 = system: SF-295
HOP-62 = system: HOP-62
OVCAR-3 = system: OVCAR-3
NCI-H23 = system: NCI-H23
HT-29 = system: HT-29
Hs-578T = system: Hs-578T
HCT-116 = system: HCT-116
RXF 393 = system: RXF 393

Compound | GI50 (Malme-3M) | GI50 (LOX IMVI) | GI50 (SNB-75) | GI50 (ACHN) | GI50 (KM12) | GI50 (CAKI-1) | GI50 (SK-MEL-28) | GI50 (786-0) | GI50 (UACC-62) | GI50 (NCI-H460) | GI50 (UACC-257) | GI50 (RPMI-8226) | GI50 (SF-295) | GI50 (HOP-62) | GI50 (OVCAR-3) | GI50 (NCI-H23) | GI50 (HT-29) | GI50 (Hs-578T) | GI50 (HCT-116) | GI50 (RXF 393)
O=C(O)c1ccc(C(=O)c2ccccc2C(=O)O)cc1C(=O)O | > 100 µM (inactive) | > 100 µM (inactive) | > 100 µM (inactive) | > 100 µM (inactive) | > 100 µM (inactive) | > 100 µM (inactive) | > 100 µM (inactive) | > 100 µM (inactive) | > 100 µM (inactive) | > 100 µM (inactive) | > 100 µM (inactive) | > 100 µM (inactive) | > 100 µM (inactive) | > 100 µM (inactive) | > 100 µM (inactive) | > 100 µM (inactive) | > 100 µM (inactive) | > 100 µM (inactive) | > 100 µM (inactive) | > 100 µM (inactive)
Oc1cccc2c(Br)ccnc12 | 8.38 µM (inactive) | 0.713 µM (active) | 7.59 µM (inactive) | 2.58 µM (inactive) | 5.19 µM (inactive) | 12.3 µM (inactive) | 12.3 µM (inactive) | 17.1 µM (inactive) | 1.47 µM (inactive) | 3.57 µM (inactive) | 2.48 µM (inactive) | 0.665 µM (active) | 1.46 µM (inactive) | 8.73 µM (inactive) | 0.697 µM (active) | 3.94 µM (inactive) | 5.4 µM (inactive) | 8.55 µM (inactive) | 1.4 µM (inactive) | 4.65 µM (inactive)
COP(=O)(OC)C1=c2c(C)noc2=C2C=COC2C1=O (centres undefined) | > 100 µM (inactive) | > 100 µM (inactive) | 94.6 µM (inactive) | > 100 µM (inactive) | > 100 µM (inactive) | > 100 µM (inactive) |  | > 100 µM (inactive) | > 100 µM (inactive) |  | > 100 µM (inactive) | > 100 µM (inactive) | > 100 µM (inactive) | > 100 µM (inactive) | > 100 µM (inactive) | > 100 µM (inactive) | > 100 µM (inactive) | 45.9 µM (inactive) | > 100 µM (inactive) | > 100 µM (inactive)
CCOC(=O)c1cn2c(n1)sc1cc(C)c(C)cc12 | 17.3 µM (inactive) | 29.1 µM (inactive) | 22.6 µM (inactive) | 19.1 µM (inactive) | 15 µM (inactive) | 20.6 µM (inactive) | 19.2 µM (inactive) | 19 µM (inactive) | 28.3 µM (inactive) | 42.8 µM (inactive) | 31.8 µM (inactive) | 25.6 µM (inactive) | 32 µM (inactive) | 17.1 µM (inactive) | 17.5 µM (inactive) | 35.7 µM (inactive) | 18 µM (inactive) | 27.6 µM (inactive) | 17.9 µM (inactive) | 22.1 µM (inactive)
CC(=O)N1C(OCc2ccccc2)CCN1c1ccccc1 (centres undefined) | > 10 µM (inactive) | > 10 µM (inactive) | > 10 µM (inactive) | > 10 µM (inactive) |  | > 10 µM (inactive) | > 10 µM (inactive) | > 10 µM (inactive) |  | > 10 µM (inactive) | > 10 µM (inactive) | > 10 µM (inactive) | > 10 µM (inactive) | > 10 µM (inactive) | > 10 µM (inactive) | > 10 µM (inactive) | > 10 µM (inactive) | > 10 µM (inactive) | > 10 µM (inactive) | > 10 µM (inactive)
N#CC(c1ccccc1)N(CCc1ccccc1)C(=O)Oc1ccccc1 (centres undefined) | > 100 µM (inactive) | > 100 µM (inactive) | 25.6 µM (inactive) | > 100 µM (inactive) | > 100 µM (inactive) | > 100 µM (inactive) | > 100 µM (inactive) | > 100 µM (inactive) | > 100 µM (inactive) |  | > 100 µM (inactive) | > 100 µM (inactive) | > 100 µM (inactive) | 82 µM (inactive) | > 100 µM (inactive) | > 100 µM (inactive) | > 100 µM (inactive) | 44.8 µM (inactive) | > 100 µM (inactive) | 46.9 µM (inactive)
CC[C@@]1(OC(=O)CN(C)C)C(=O)OCc2c1cc1n(c2=O)Cc2cc3ccccc3nc2-1 | 0.347 µM (active) | 0.0198 µM (active) | 0.0647 µM (active) | 0.00875 µM (active) | 0.223 µM (active) | 0.0211 µM (active) | 0.308 µM (active) | 0.0259 µM (active) | 0.00569 µM (active) | 0.00533 µM (active) | 0.11 µM (active) | 0.181 µM (active) | 0.01 µM (active) | 0.0234 µM (active) | 0.32 µM (active) | 0.0865 µM (active) | 0.129 µM (active) | 4.24 µM (inactive) | 0.0481 µM (active) | 0.139 µM (active)
N#CC(c1ccnc(Cl)n1)c1nc2ccccc2s1 (centres undefined) | 2.7 µM (inactive) | 3.55 µM (inactive) | 2.36 µM (inactive) | 13.7 µM (inactive) | 4.37 µM (inactive) | 3.87 µM (inactive) | 10.8 µM (inactive) | 3.78 µM (inactive) | 3.21 µM (inactive) | 3.61 µM (inactive) | 6.19 µM (inactive) | 3.54 µM (inactive) | 8.49 µM (inactive) | 18.7 µM (inactive) | 5.55 µM (inactive) | 2.48 µM (inactive) | 2.88 µM (inactive) | 7.74 µM (inactive) | 2.58 µM (inactive) | 4.44 µM (inactive)
Cc1ccc(S(=O)(=O)N(CC(O)COc2ccccc2)c2c(F)cccc2F)cc1 (centres undefined) | 21 µM (inactive) | 15.2 µM (inactive) | 18.9 µM (inactive) | 17.3 µM (inactive) | 17.7 µM (inactive) | 14.3 µM (inactive) | 16.3 µM (inactive) | 20.7 µM (inactive) | 14.8 µM (inactive) | 15.1 µM (inactive) | 21.8 µM (inactive) | 14.4 µM (inactive) | 29.2 µM (inactive) | 19.2 µM (inactive) | 11.6 µM (inactive) | 18.5 µM (inactive) | 17.4 µM (inactive) | 20 µM (inactive) |  | 10.5 µM (inactive)
CCC1(CC)C(=O)N(C(=O)c2ccccc2)N(C(=O)c2ccc(Cl)cc2)C1=O | > 75 µM (inactive) | 3.35 µM (inactive) | > 75 µM (inactive) | > 75 µM (inactive) | > 75 µM (inactive) | > 75 µM (inactive) | > 75 µM (inactive) | > 75 µM (inactive) | > 75 µM (inactive) | 36.6 µM (inactive) | > 75 µM (inactive) | 20 µM (inactive) | > 75 µM (inactive) | > 75 µM (inactive) | > 75 µM (inactive) | > 75 µM (inactive) | 58.6 µM (inactive) | > 75 µM (inactive) | 43.9 µM (inactive) | > 75 µM (inactive)
CN(C)CCCNc1ccnc2cc([N+](=O)[O-])ccc12 | 3.44 µM (inactive) | 11.4 µM (inactive) | 23.3 µM (inactive) | 19 µM (inactive) | 10.2 µM (inactive) | 26.9 µM (inactive) | 36.2 µM (inactive) | 10.4 µM (inactive) | 18.8 µM (inactive) | 4.97 µM (inactive) | 13.9 µM (inactive) | 59.2 µM (inactive) | 20.4 µM (inactive) | 16 µM (inactive) | 5.11 µM (inactive) | 11.7 µM (inactive) | 2.68 µM (inactive) | 17.9 µM (inactive) | 6.31 µM (inactive) | 11.2 µM (inactive)
OC(CCNCc1ccccc1)c1ccc2ccccc2c1 (centres undefined) | 22 µM (inactive) | 13.5 µM (inactive) | 28.2 µM (inactive) | 18.3 µM (inactive) | 17 µM (inactive) | 21.8 µM (inactive) | 18.4 µM (inactive) | 20.1 µM (inactive) | 19.3 µM (inactive) | 17.3 µM (inactive) | 18 µM (inactive) | 23.8 µM (inactive) | 33 µM (inactive) | 19.3 µM (inactive) | 13.3 µM (inactive) | 30 µM (inactive) | 22.9 µM (inactive) | 20.6 µM (inactive) | 22.4 µM (inactive) | 16.7 µM (inactive)
CN(C)[C@@H]1C(O)=C(C(=O)NCNc2nc3[nH]nnc3c(=O)[nH]2)C(=O)[C@@]2(O)C(O)=C3C(=O)c4c(O)cccc4[C@@](C)(O)[C@H]3C[C@@H]12 | 0.773 µM (active) | 0.679 µM (active) | 11.2 µM (inactive) | 31.5 µM (inactive) | 49.8 µM (inactive) | 0.557 µM (active) | 1.33 µM (inactive) | 0.637 µM (active) | 0.346 µM (active) | 24.3 µM (inactive) | 1.28 µM (inactive) | 0.272 µM (active) | 4.47 µM (inactive) | 0.518 µM (active) | 25.9 µM (inactive) | 35.3 µM (inactive) | 43.7 µM (inactive) | 2 µM (inactive) | 1.21 µM (inactive) | 0.518 µM (active)
CC1(C)CC[C@]2(C(=O)O)CC[C@]3(C)C(=CC[C@@H]4[C@@]5(C)CC[C@H](OC6OC(CO)C(O)C(O)C6O)C(C)(C)[C@@H]5CC[C@]43C)[C@@H]2C1 (some centres undefined) | 1.67 µM (inactive) | 1.66 µM (inactive) | 2.12 µM (inactive) | 1.66 µM (inactive) | 1.52 µM (inactive) | 2.3 µM (inactive) | 1.99 µM (inactive) | 1.77 µM (inactive) | 1.82 µM (inactive) | 3.61 µM (inactive) | 1.69 µM (inactive) | 2.61 µM (inactive) | 1.78 µM (inactive) | 1.72 µM (inactive) | 1.61 µM (inactive) | 1.99 µM (inactive) | 1.62 µM (inactive) | 2.26 µM (inactive) | 1.69 µM (inactive) | 1.98 µM (inactive)
